Measured values from patent publication US20110319287A1, “MODULATOR ASSAY” (ADDEX PHARMA S.A., priority 2009, published 2011).
Values belong to the compound of their own block, whether it stands above or below them. Peptide text beside a SMILES is read from it. * marks the point of attachment. Cbz = O=C(OCc1ccccc1)*; CH2F = FC*

Experiments:
[1] = system: TNF-induced relocalisation of EYFP-TRADD (TNFR1-containing complex I) in HeLa cells; assay: TNF-mediated relocation of fluorescently tagged TRADD in Clone #49-E2 HeLa cells, 384-well (Example 2); format: cell-based, human; conditions: for selectivity: relocalisation of the reporter molecule EYFP-TRADD effected by other compounds or molecules: added instead of TNF, FIG. 12; for effect of downstream signalling inhibitors on detectable EYFP-TRADD clusters: increasing concentrations, in the presence of TNF, FIGS. 14-16
Protocol: The following experimental procedure to detect the reporter molecule in the presence of absence of a “test” compound (or molecule, as described below) was conducted.
On day 1, 10^3 cells per well were plated in thin glass bottom 384 wells plate in 50 μl of culture media (DMEM glutamax, 10% FBS, peni-strep, geneticin, hygromycin). The cells were incubated overnight at 37° C. On day 2, media was aspirated, and 35 μl of warm DMEM, 2, 5% FBS, HEPES 10 mM added. Then, 15 μl of 4× the test compound diluted in DMEM, 2, 5% FBS, HEPES 10 mM was added to cells using a Biomek laboratory automation workstation (Beckman-Coulter). This was incubated at room temperature for 1.5 min. […] The cells were washed three times with PBS 1× using an Embla 384 Cell Washer (Molecular Devices). Cells were fixed by adding PBS 1×, 5% PFA+Hoescht 0.2 μg/ml using a Multidrop 384 dispensor (Thermo Scientific; 30 μl/well) followed by an incubation for 20 min at room temperature in the dark. After a further three washes of the cells with PBS 1× using the Embla 384 Cell Washer, 60 μl per well of PBS 1×, 1% peni-strep was added. The plate was covered with a transparent sealing film. Readings were then taken on the Scientific Cellomics ArrayScan HCS Reader automated microscope system as used in Example 1.

[2] = system: TNF-mediated relocation of TRADD-EYFP in HeLa cells; assay: TNF-mediated relocation of TRADD-EYFP / EYFP-TRADD in stably transfected HeLa cells (Example 1, clone HeLa/TRADD-EYFP#49); format: cell-based, human; conditions: for blocking of TNF-induced relocalisation of fluorescently tagged TRADD to punctuate structures: in the presence of TNF, R-7050 100 μM with 1000 ng/ml TNF (FIG. 6), etanercept FIG. 9
Source text: The pTREhyg-EYFP-TRADD and pTREhyg-TRADD-EYFP expression vectors were stably transfected using PolyFect® Transfection Reagent (Qiagen), according to the manufacturer's protocol, into HeLa Tet-On Cell Line cells (Clontech Laboratories, Inc.). This cell line is a neomycin resistant human cervical epithelioid carcinoma cell line transformed with a modified version of pTet-On which has a nuclear localization signal fused to the N-terminus (pUHD172-1neo).
Intracellular location of EYFP-TRADD and TRADD-EYFP was determined using fluorescence microscopy. Using a fluorescence microscope, cells are illuminated with light of a specific wavelength which is absorbed by the EYFP, causing it to emit longer wavelengths of light (of a different colour than the absorbed light). The illumination light is separated from the much weaker emitted fluorescence through the use of an emission filter, and an image of the cell created.
We then used an automated microscope system (a Thermo Scientific Cellomics ArrayScan HCS Reader) as an automated fluorescence microscopic imaging system designed for high content screening and high content analysis. The instrument features include optics by Carl Zeiss, broad white-light source, 12-bit cooled CCD camera, and controller software. The instrument is designed to work with image analysis modules (Thermo Scientific BioApplications) that automatically convert images into numeric data that capture changes in cell size, shape, intensity, and other properties. The system allows: high content screening, analysis of cells containing fluorescent reporter molecules in an array of locations, treating the cells in the array of locations with one or more test compounds, imaging numerous cells in each location with fluorescence optics, and converting the optical information into digital data. This digital data was then used to determine the positioning, distribution, environment or activity of the fluorescently labelled reporter molecules (EYFP-TRADD or TRADD-EYFP) in the transfected HeLa cells and the distribution of the cells. This information was analysed in terms of a positive, negative or null effect of each test compound being examined. This system allowed differences between untreated and treated cells to be measured, for example by counting the number of fluorescent spots (rather than diffuse fluorescence) in cells.
Using GraphPad Prism (v. 4.01, San Diego, Calif., USA), a dose-response curve was generated (FIG. 7). Percentage responders (y-axis values in FIGS. 7 and 8) were determined as the number of cells with more than five spots, which is an alternative but qualitatively similar measurement to spot count per cell (see below).

[3] = target: T1, TL1A-activated DR3 receptor (Homo sapiens, UniProt Q93038, P167L); assay: TL1A-induced TRADD-EYFP relocation in HeLa TRADD DR3 recombinant cells (Example 3); format: cell-based; conditions: FIG. 17
T1 construct: (N); expressed in transfected cells; host or cells: HeLa Tet-On cells stably expressing TRADD-EYFP, transfected with pTRE2-DR3 (HeLa TRADD DR3)
T1 sequence (Q93038 with tags, fused parts or gaps P167L): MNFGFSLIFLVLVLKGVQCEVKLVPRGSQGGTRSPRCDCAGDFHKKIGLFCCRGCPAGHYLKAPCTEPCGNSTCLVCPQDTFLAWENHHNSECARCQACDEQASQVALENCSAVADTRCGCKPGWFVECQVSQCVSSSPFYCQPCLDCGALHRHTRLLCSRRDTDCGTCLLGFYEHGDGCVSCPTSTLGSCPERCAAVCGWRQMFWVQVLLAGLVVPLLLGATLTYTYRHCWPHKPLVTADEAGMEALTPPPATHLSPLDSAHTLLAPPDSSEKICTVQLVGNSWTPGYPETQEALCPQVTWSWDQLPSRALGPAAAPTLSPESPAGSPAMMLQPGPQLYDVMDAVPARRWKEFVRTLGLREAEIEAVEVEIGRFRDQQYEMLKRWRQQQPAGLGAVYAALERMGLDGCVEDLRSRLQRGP
Source text: (§1) In a further example of the present invention, a method involving the TL1A-activated DR3 receptor was developed. The TRADD-EYFP HeLa clones comprising the TRADD-EYFP reporter molecule transfected into HeLa cells as described in Example 1 was employed. The DR3 receptor (cDNA sequence shown in SEQ ID NO: 19 and encoded protein shown in SEQ ID NO: 20) which had been cloned in the vector pCR3.1 (Invitrogen) was transferred into the vector pTre2 (Clontech) using the Gateway® cloning technique with the primers Attb1 Forward primer (SEQ ID NO: 21) and Attb2 Reverse primer (SEQ ID NO: 22), yielding a pTRE2-DR3 expression vector (SEQ ID NO: 23). This expression vector was then transfected into the TRADD-EYFP HeLa clones to produce a double transformants designated HeLa TRADD DR3.
(§2) Monitoring and quantification of the TRADD-EYFP reporter molecule was conducted as described in Examples 1 and 2 above. […] The data of FIG. 17 are depicted graphically in FIG. 18.

[4] = system: TNF-induced TRADD relocalisation in HeLa TRADD DR3 cells; assay: TNF-induced TRADD-EYFP relocation in HeLa TRADD DR3 recombinant cells (Example 3); format: cell-based, human; conditions: in the presence of 100 ng/ml TNF; FIG. 19
Source text: as §1, §2

Compound: Polyinosinic-polycytidylic acid potassium salt [Poly I:C]
selectivity: relocalisation of the reporter molecule EYFP-TRADD effected by other compounds or molecules [1]: not effected

IC50 ([2]; TNF dose=300 ng/ml, FIG. 9): 2740 nM | dose-dependent inhibition of TL1A-induced relocalisation ([3]; in the presence of 300 ng/ml TL1A): not | IC50 on TNF-induced relocalisation [4]: 0.0538 µg/mL
Compound: etanercept
blocking of TNF-induced relocalisation of fluorescently tagged TRADD to punctuate structures [2]: block | blocking of TNF-induced relocalisation of EYFP-TRADD ([1]; FIG. 13): blocks | dose-dependent inhibition of TNF-induced relocalisation [4]: dose-dependently inhibited

Compound: O=C(c1ccc(Nc2nccc(-c3cc4ccccc4s3)n2)cc1)N1CCC(N2CCCC2)CC1 [IKK16]
effect of downstream signalling inhibitors on detectable EYFP-TRADD clusters [1]: no change in detectable EYFP-TRADD clusters

IC50 ([2]; on 1000 ng/ml TNF, FIG. 8): 2100 nM
Compound: FC(F)(F)c1nnc2c(Sc3ccccc3)nc3ccc(Cl)cc3n12 [R-7050]
blocking of TNF-induced relocalisation of fluorescently tagged TRADD to punctuate structures [2]: blocked

Compound: IL1β: Recombinant Human IL1β from Peprotech, Cat N° 200-01B
selectivity: relocalisation of the reporter molecule EYFP-TRADD effected by other compounds or molecules [1]: not effected

Compound: C=C1[C@@H](C)[C@H]2[C@H](Cc3ccccc3)NC(=O)[C@]23[C@H](OC(C)=O)/C=C/[C@@](C)(O)C(=O)[C@@H](C)C/C=C/[C@H]3[C@@H]1O [cytochalasin D]
effect of downstream signalling inhibitors on detectable EYFP-TRADD clusters [1]: a reduction in detectable EYFP-TRADD clusters

calculated EC50 of TL1A (TRADD-EYFP relocalisation to spots) ([3]; HeLa TRADD DR3 cells): 0.0043 µg/mL
Compound: TL1A: Recombinant Human TL1A/TNFSF15 from R&D Systems, Cat N° 1319-TL
selectivity: relocalisation of the reporter molecule EYFP-TRADD effected by other compounds or molecules [1]: not effected

Compound: TRAIL: recombinant human TRAIL from Millipore, Cat N° GF092
selectivity: relocalisation of the reporter molecule EYFP-TRADD effected by other compounds or molecules [1]: not effected

Compound: CC[C@H](C)[C@H](NC(=O)OCc1ccccc1)C(=O)N[C@@H](CCC(=O)OC)C(=O)N[C@H](C(=O)N[C@@H](CC(=O)OC)C(=O)CF)[C@@H](C)O [Z-IETD-FMK] (Cbz-IE(OMe)TD(OMe)-CH2F)
effect of downstream signalling inhibitors on detectable EYFP-TRADD clusters [1]: no dissociation of clusters
